According to ChEMBL document CHEMBL5465560, “Selectivity Literature for EUbOPEN Chemogenomic Library” (2024):

Assays:
[1] = biological target: T1, Cyclin-G-associated kinase (Homo sapiens) (UniProt O14976); assay: Selectivity interaction (KinomeScan (DiscoverX)) EUB0000092b GAK; settings: at 10 µM
T1 sequence (whole entry): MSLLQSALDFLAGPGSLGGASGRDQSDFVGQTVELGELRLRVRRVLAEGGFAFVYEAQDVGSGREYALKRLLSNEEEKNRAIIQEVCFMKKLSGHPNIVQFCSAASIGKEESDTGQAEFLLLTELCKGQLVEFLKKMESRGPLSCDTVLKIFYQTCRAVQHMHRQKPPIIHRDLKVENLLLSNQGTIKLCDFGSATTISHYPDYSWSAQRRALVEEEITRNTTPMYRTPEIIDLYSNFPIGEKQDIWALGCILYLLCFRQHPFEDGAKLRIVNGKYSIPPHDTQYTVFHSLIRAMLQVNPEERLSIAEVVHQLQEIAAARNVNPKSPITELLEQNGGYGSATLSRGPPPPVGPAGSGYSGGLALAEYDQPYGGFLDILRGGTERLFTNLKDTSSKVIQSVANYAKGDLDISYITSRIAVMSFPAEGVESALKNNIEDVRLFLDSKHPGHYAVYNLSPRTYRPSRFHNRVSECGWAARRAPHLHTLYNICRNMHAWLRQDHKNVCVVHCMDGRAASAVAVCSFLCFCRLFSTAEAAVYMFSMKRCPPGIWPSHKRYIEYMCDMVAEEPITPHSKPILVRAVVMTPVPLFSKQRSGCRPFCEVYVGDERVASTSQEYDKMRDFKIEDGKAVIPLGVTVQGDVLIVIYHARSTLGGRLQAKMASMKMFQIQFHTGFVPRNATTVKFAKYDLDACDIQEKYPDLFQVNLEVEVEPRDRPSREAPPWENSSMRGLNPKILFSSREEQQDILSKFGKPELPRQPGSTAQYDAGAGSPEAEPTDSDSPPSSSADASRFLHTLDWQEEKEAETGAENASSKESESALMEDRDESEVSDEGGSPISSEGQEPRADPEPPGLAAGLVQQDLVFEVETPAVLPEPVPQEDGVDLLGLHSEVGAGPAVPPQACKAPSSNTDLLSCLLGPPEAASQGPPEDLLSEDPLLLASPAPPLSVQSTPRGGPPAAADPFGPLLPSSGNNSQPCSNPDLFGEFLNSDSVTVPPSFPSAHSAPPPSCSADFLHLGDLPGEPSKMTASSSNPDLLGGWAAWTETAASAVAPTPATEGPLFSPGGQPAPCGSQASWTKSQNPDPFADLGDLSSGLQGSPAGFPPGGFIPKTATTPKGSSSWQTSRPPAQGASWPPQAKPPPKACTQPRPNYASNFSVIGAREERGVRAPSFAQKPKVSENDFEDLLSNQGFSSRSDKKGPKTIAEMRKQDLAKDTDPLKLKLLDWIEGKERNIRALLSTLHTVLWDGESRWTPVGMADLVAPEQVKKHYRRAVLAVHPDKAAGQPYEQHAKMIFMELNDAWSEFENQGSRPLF

[2] = biological target: Casein kinase I isoform gamma-3 (Homo sapiens) (UniProt Q9Y6M4); assay: Selectivity interaction (KinaseProfiler screening (Millipore)) EUB0000601a CSNK1G3; settings: at 3 µM
Chain of Casein kinase I isoform gamma-3 (Homo sapiens) (Q9Y6M4 whole entry, looked up, canonical isoform): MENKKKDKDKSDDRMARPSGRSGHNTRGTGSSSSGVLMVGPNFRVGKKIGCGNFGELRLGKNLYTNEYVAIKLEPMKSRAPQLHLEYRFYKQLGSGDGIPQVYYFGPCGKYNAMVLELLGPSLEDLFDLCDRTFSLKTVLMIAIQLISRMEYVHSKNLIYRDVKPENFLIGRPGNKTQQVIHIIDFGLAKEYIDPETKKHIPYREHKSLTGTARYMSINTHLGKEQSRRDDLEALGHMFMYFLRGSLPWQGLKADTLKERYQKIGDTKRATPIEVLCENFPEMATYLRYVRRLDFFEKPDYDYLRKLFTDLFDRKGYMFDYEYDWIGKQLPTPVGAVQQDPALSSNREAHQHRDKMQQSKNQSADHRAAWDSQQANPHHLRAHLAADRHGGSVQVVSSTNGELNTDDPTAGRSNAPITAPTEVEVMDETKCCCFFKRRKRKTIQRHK

[3] = biological target: T2, Serine/threonine-protein kinase D3 (Homo sapiens) (UniProt O94806); assay: Selectivity interaction (SelectScreen profiling (Invitrogen)) EUB0000607a PRKD3; settings: at 2 µM
T2 sequence (whole entry): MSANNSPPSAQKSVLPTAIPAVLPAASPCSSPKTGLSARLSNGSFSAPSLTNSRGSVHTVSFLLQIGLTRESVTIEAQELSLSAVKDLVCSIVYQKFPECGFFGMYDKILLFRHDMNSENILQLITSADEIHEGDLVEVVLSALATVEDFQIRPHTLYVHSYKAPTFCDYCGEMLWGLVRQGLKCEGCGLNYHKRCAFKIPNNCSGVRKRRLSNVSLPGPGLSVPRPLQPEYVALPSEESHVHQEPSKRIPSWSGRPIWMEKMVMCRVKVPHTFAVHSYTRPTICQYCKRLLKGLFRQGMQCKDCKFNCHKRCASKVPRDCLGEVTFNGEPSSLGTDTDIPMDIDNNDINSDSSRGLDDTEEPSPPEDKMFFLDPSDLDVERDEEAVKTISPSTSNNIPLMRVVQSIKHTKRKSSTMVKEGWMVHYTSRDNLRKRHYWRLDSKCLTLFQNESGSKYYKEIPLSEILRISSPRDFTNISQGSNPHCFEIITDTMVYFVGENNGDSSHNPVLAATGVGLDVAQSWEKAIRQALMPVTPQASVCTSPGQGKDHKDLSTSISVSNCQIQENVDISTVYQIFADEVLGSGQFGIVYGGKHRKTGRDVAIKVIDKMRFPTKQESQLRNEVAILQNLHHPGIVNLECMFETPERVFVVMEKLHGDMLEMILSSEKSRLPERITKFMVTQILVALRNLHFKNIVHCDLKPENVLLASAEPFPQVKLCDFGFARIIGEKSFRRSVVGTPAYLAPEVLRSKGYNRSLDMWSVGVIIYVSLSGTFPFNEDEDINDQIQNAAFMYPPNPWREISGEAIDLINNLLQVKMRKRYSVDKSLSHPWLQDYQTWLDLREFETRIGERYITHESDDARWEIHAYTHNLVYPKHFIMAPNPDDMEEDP

Compound: CCC(=O)N1CCN(c2ccc(-n3c(=O)ccc4cnc5ccc(-c6cnc7ccccc7c6)cc5c43)cc2C(F)(F)F)CC1
- % of control [1]: 57%

Compound: CCc1cc(Nc2nccc(-c3c(-c4ccc(OC)c(C(=O)Nc5c(F)cccc5F)c4)nc4ccccn34)n2)c(OC)cc1N1CCC(N2CCN(S(C)(=O)=O)CC2)CC1
- % of inhibition [2]: 46%

Compound: CNC(=O)Nc1ccc(-c2nc(N3CC4CCC(C3)O4)c3cnn(C4CCC5(CC4)OCCO5)c3n2)cc1
- % of inhibition [3]: 4%
